# How the values were obtained:
# [1] = tested on: human T cells; assay: T-cell adhesion to fibronectin in presence of SDF-1α; type: cell-based; details: 2 h pretreatment prior to SDF-1α, FN-coated plates, relative to untreated T cells
# Method: Human T cells. T cells from the peripheral blood of healthy donors were isolated by negative selection using a RosetteSep™ antibody cocktail containing mabs against CD16, CD19, CD36, and CD56 (StemCell Technologies, Vancouver, BC). After incubation with the cocktail for 20 min at room temperature, blood samples were diluted in PBS with 2% fetal bovine serum, loaded on a Ficoll column (ICN Biomedical, Aurora, Ohio), and centrifuged at 1200× g for 20 min at room temperature. The cells were removed from the Ficoll column, washed, and cultured in RPMI containing antibiotics and 10% heat-inactivated FCS. T-cell adhesion assays. Adhesion of T cells to FN was assayed as described (Ariel et al., 1998). Briefly, flat-bottomed microtiter well plates were precoated with CSPG or FN (10 μg/ml) and the remaining binding sites were blocked with 1% BSA. […]-labeled T cells were resuspended in RPMI medium supplemented with 1% HEPES buffer and 0.1% BSA (adhesion medium). After preincubation 2 h with CSPG-DS at the indicated concentrations, the T cells were incubated (30 min, 37° C., humidified atmosphere of 7% CO2 in air) with SDF-1α and then added to the wells. […] Adherent cells were lysed with lysis buffer (1 M NaOH, 0.1% Triton X-100 in H2O), removed, and counted with a γ-counter (Packard, Downers Grove, Ill.).
# [2] = tested on: MHC II; assay: MHC II expression in microglia; type: cell-based
# [3] = tested on: TNF-α; assay: TNF-α secretion by anti-CD3-activated T cells, ELISA; type: cell-based, human; details: 2 h pretreatment, then anti-CD3 activation 24 h
# [4] = tested on: IL-4 and IL-13; assay: RT-PCR of IL-4 and IL-13 mRNA in activated T cells; type: cell-based, human; details: 2 h pretreatment, anti-CD3 activation 3 h; similar after 6 or 12 h
# Method: RNA purification, RT-PCR, and CDNA synthesis. After pretreatment with the indicated concentrations of CSPG-DS for 2 h, […], lysed with TRI reagent (MRC, Cincinnati, Ohio), and total cellular RNA was purified from lysates using the RNeasy kit (Qiagen, Hilden, Germany) according to the manufacturer's instructions. RNA was converted to cDNA using SuperScript II (Promega, Madison, Wis.), as recommended by the manufacturer. The expression of specific mRNAs was assayed by RT-PCR, using the messageScreen™ Human Th1/Th2 Cytokine Set 1 Multiplex PCR® kits (BioSource International, Camarillo, Calif.), according to the manufacturer's instructions.
# [5] = tested on: NF-κB; assay: Western blot of NF-κB in T-cell nuclear extracts; type: cell-based, human; details: T cells activated by anti-CD3 Ab
# Method: Western blot analysis of T-cell nuclear extracts. Purified T cells (5×10^6) were preincubated for 2 h with different concentrations of CSPG-DS. The cells were then replated at the same CSPG-DS concentration on 24-well plates pre-coated for 24 h with anti-CD3 mAb. The T cells were lysed in 10 mM HEPES, 1.5 mM MgCl2, 1 mM dithiothreitol, 1 mM PMSF, and 0.5% Nonidet P-40 (buffer A). The lysates were incubated on ice for 10 min and centrifuged at 2000 rpm for 10 min at 4° C. The supernatants (cytoplasmic extracts) were transferred and the pellets (nuclei) were suspended in buffer containing 30 mM HEPES, 450 mM NaCl, 25% glycerol, 0.5 mM EDTA, 6 mM dithiothreitol, 12 mM MgCl2 1 mM PMSF, 10 μg/ml leupeptin, 10 μg/ml pepstatin, and 1% phosphatase inhibitor cocktail (buffer B), and the suspension was incubated on ice for 30 min. The lysates were cleared by centrifugation (30 min, 14×10^3 rpm, 4° C.), and the resulting supernatants were analyzed for protein content. Sample buffer was added, the mixture was boiled, and the samples containing equal amounts of proteins were separated on 10% SDS-PAGE gel and transferred to nitrocellulose membranes. […]
# [6] = tested on: retinal ganglion cells (RGCs); assay: Chronically high intra-ocular pressure (laser-induced glaucoma) rat model, RGC survival; type: in vivo, Lewis rats; details: chronic IOP rats
# Text: Induction of chronically high intra-ocular pressure: Blockage of aqueous outflow causes an increase in IOP, which results in RGC death (Schori et al., 2001 and Bakalash et al., 2002). […] The laser beam, which was directed at three of the four episcleral veins and at 270 degrees of the limbal plexus, was applied with a power of 1 watt for 0.2 s, producing a spot size of […] at the episcleral veins and […] at the limbal plexus. At a second laser session 1 week later, the same parameters were used except that the spot size was […] for all applications, this time the radiation was directed towards all four episcleral veins and 360 degrees of the limbal plexus (Schori et al., 2001).
# Anatomical assessment of retinal damage caused by the increase in IOP: The hydrophilic neurotracer dye dextran tetramethylrhodamine (Rhodamine Dextran) (Molecular Probes, Oreg., USA) was applied directly into the intra-orbital portion of the optic nerve. […] RGCs were counted under magnification of ×800 in a Zeiss fluorescent microscope. Four fields from each retina were counted, all with the same diameter (0.076 mm^2) and located at the same distance from the optic disc (Kipnis et al., 2001; and Yoles et al., 2001). […] RGCs were counted by an observer who was blinded to the identity of the retinas. […]
smiles,measurement,setting,value
"CC(=O)N[C@H]1C(O)O[C@H](COS(=O)(=O)O)[C@H](O)[C@@H]1O[C@@H]1OC(C(=O)O)=C[C@H](O)[C@H]1O (stereo partly drawn) [CSPG-DS, 2-acetoamido-2-deoxy-3-O-(β-D-gluco-4-enepyranosyluronic acid)-6-O-sulfo-D-galactose]",T-cell adhesion,[1],significantly reduced
same,MHC II expression in microglia,[2],activate microglia to express MHC II
same,secretion of TNF-α,[3],significant reduction
same,mRNA levels of Th2-associated cytokines IL-4 and IL-13,[4],not affected
same,NF-κB levels in nuclei,[5],reduction
same,viable RGCs per mm^2,"[6]; eye drops 20 μg/ml (5 x 50 μl), every other day between day 7 and day 14, counted at three weeks, n=6",1924±191 RGCs per mm^2
same,viable RGCs per mm^2,"[6]; intravenous, every other day between day 7 and day 14 after first laser session, n=5",2063±215 RGCs per mm^2
